Source: patent US20220184092A1, “ANTI-VIRAL ACTIVITY OF VPS34 INHIBITORS” (Deciphera Pharmaceuticals, LLC, priority 2020, published 2022)
Read-outs that look alike come from different tables or passages of the source.

Tests used:
SARS CoV-2 = SARS CoV-2 CPE assay for antiviral activity in Vero E6 host cells; format: cell-based, coronavirus USA_WA1/2020 SARS CoV-2; conditions: read-out: IC50 for inhibition of SARS CoV-2 mediated cell killing
in vitro = format: cell-based; conditions: African green monkey
Procedure: (§1) Compound cytotoxicity (CC50) is assessed in a BSL-2 counter screen as follows: Host cells in media are added in 25 μl aliquots (4000 cells/well) to each well of assay ready plates prepared with test compounds as above. […] DMSO is maintained at a constant concentration for all wells (0.3%) as dictated by the dilution factor of stock test compound concentrations. After incubating plates at 37° C./5% CO2 and 90% humidity for 72 hours, 30 μl Cell Titer-Glo (Promega) is added to each well. Luminescence is read using a BMG PHERAstar plate reader following incubation at room temperature for 10 minutes to measure cell viability.

Vero E6 cells = assay: in vitro; format: cell-based; conditions: African green monkey, 72 h
Procedure: as §1

SARS-CoV-2 = assay: microbe, parasite or virus in culture; format: cell-based; conditions: Severe acute respiratory syndrome coronavirus 2, A549, 48 h; read-out: IC50 for inhibition of SARS CoV-2 mediated cell killing
[1] = Vero C1008, Vero E6 cells, CPE assay, 72 hours, 10-point dose response, high concentration 15 μM

Structure (SMILES) | IC50 (SARS CoV-2; [1]) [µM] | CC50 at 72 h (in vitro) [µM] | CC50 (Vero E6 cells) [µM] | IC50 (SARS-CoV-2) [µM] | IC50 (SARS CoV-2; Vero C1008, 72 h) [µM]
C[C@@H]1COCCN1c1cc(-c2ccccc2Cl)[nH]c(=O)c1 [Compound 2] | 2.76 | > 30 | > 30 | 0.83 | –
C[C@@H]1COCCN1c1cc(-c2ccccc2C(F)(F)F)[nH]c(=O)c1 [Compound 1] | 3.91 | > 30 | > 30 | 2.05 | –
Cc1cscc1-c1cc(N2CCOC[C@H]2C)cc(=O)[nH]1 [Compound 3] | – | > 10 | > 10 | 6.39 | > 10
